In patent publication US20220204512A1, “SUBSTITUTED FUSED BICYCLIC DERIVATIVE, PREPARATION METHOD THEREFOR, AND APPLICATION THEREOF IN MEDICINES” (Jiangsu Hengrui Medicine Co., Ltd., priority 2019, published 2022):

Experiments:
[1] = target: T1, ERK1 (Homo sapiens, UniProt P27361); assay: ERK1 enzyme activity test (ADP-Glo Kinase Assay); assay type: biochemical; conditions: ADP-Glo chemiluminescence
T1 construct: purchased R&D 1879-KS-010
Method: (§1) The purpose of this experiment is to detect the inhibitory ability of the compounds of the present disclosure on the ERK1 enzyme activity and to evaluate the in vitro activity of the compounds based on the IC50. The ADP-Glo™ Kinase Assay Kit was used in this experiment. The substrate was phosphorylated under the action of the enzyme and ADP was produced at the same time. The ADP-Glo reagent was added to remove the unreacted ATP in the reaction system, and the ADP produced by the reaction was detected with kinase detection reagent. In the presence of the compound, the inhibition rate of the compound was calculated by measuring the signal value.
Preparation of Enzyme and substrate: ERK1 (1879-KS-010, R&D) and substrate (AS-61777, anaspec) were prepared to 0.75 ng/p1 and 100 μM respectively in a buffer, and then the enzyme solution and the substrate solution were prepared into a mixed solution at a volume ratio of 2:1 for later use. ATP was diluted to 300 μM with buffer. The compound was dissolved in DMSO (dimethyl sulfoxide, Shanghai Titan Scientific Co., Ltd.) to prepare a stock solution with an initial concentration of 20 mM, and then Bravo was used to prepare the compound. Finally, 3 μL of a mixed solution of enzyme and substrate, and 1 μL of different concentrations of the compound (the initial concentration was 50 μM, 4-fold dilution) were added to each well of the 384-well plate, and the plate was incubated at 30° C. for 10 minutes, and finally 1 μL of 300 μM ATP solution was added to each well, and the plate was incubated at 30° C. for 2 hours. Then 5 μL of ADP-Glo was added, and the plate was incubated at 30° C. for 40 minutes. Then 10 μL of kinase detection buffer was added, and the plate was incubated at 30° C. for 40 minutes. The 384-well plate was taken out and placed in a microplate reader (BMG labtech, PHERAstar FS), and the chemiluminescence was measured by a microplate reader.
(§2) Microsoft Excel, Graphpad Prism 5 was used to process and analyze the data.

[2] = target: T2, ERK2 (Homo sapiens, UniProt P28482); assay: ERK2 enzyme activity test (ADP-Glo Kinase Assay); assay type: biochemical; conditions: ADP-Glo chemiluminescence
T2 construct: purchased R&D 1879-KS-010
Method: as §1, with “the ERK2” for “the ERK1”, “enzyme activity,” for “enzyme activity”
Preparation of enzyme and substrate: ERK2 (1879-KS-010, R&D) and substrate (custom peptide, Gill Biochemical) were prepared to 0.75 ng/ml and 1500 μM in a buffer (40 mM Tris, 20 mM MgCl2, 0.1 mg/ml BSA, 50 μM DTT), and then the enzyme solution and the substrate solution were prepared into a mixed solution at a volume ratio of 2:1 for later use. ATP was diluted to 500 μM with buffer. The compound was dissolved in DMSO (dimethyl sulfoxide, Shanghai Titan Scientific Co., Ltd.) to prepare a stock solution with an initial concentration of 20 mM, and then Bravo was used to prepare the compound. Finally, 3 μL of a mixed solution of enzyme and substrate, and 1 μL substrate of different concentrations of the compound (the initial concentration is 50 μM, 4-fold dilution) were added to each well of the 384-well plate, and the plate was incubated at 30° C. for 10 minutes, and finally 1 μL 500 μM ATP solution was added to each well, and the plate was incubated at 30° C. for 2 hours. Then 5 μL of ADP-Glo was added, and the plate was incubated at 30° C. for 40 minutes. Then 10 μL of kinase detection buffer was added, and the plate was incubated at 30° C. for 40 minutes. The 384-well plate was taken out and placed in a microplate reader (BMG labtech, PHERAstar FS), and the chemiluminescence was measured by a microplate reader.
as §2

[3] = tested on: Colo205 cells; assay: In vitro proliferation inhibition test on Colo205 tumor cells (CellTiter-Glo); assay type: cell-based; conditions: Homo sapiens, COLO 205, 72 h; Colo205 cell proliferation, 3 days of culture, CTG
Method: The purpose of this experiment is to test the inhibitory activity of the compounds of the present disclosure on the proliferation of Colo205 cells (CCL-222, ATCC) in vitro. The cells were treated in vitro with different concentrations of the compounds. After 3 days of culture, the cell proliferation was tested with CTG (CellTiter-Glo® Luminescent Cell Viability Assay, Promega, Catalog No. G7573) reagent, and the in vitro activity of the compounds was evaluated according to the ICso value.
In the following, the in vitro proliferation inhibition test method of Colo205 cells is taken as an example to illustrate the method for testing the in vitro proliferation inhibitory activity of the compounds of the present disclosure on tumor cells. This method is also applicable to, but not limited to, the in vitro proliferation inhibitory activity test on other tumor cells.
Colo205 cells were digested, centrifuged and then resuspended. The single cell suspension was mixed well, and the density of viable cells was adjusted to 5.0×10^4 cells/ml with cell culture medium (RPMI1640+2% FBS), and 95 μL/well was added to a 96-well cell culture plate. Only 100 μL medium was added to the peripheral wells of the 96-well plate. The culture plate was incubated in an incubator for 24 hours (37° C., 5% CO2).
The compound was dissolved in DMSO (dimethyl sulfoxide, Shanghai Titan Scientific Co., Ltd.) and prepared as a stock solution with an initial concentration of 20 mM. The initial concentration of the small molecule compound was 2 mM, and then 4-fold diluted into 9 points, and the 10th point was DMSO. Another 96-well plate was taken, and 90 μL of cell culture medium (RPMI1640+2% FBS) was added to each well. Then 10 μL of different concentrations of the test sample was added to each well. The mixture was mixed well, and then 5μL of different concentrations of the test sample was added to the cell culture plate. Each sample has two duplicate holes. The culture plate was incubated in the incubator for 3 days (37° C., 5% CO2). The 96-well cell culture plate was taken out. 50 μL solution of CTG was added to each well, and the plate was incubated for 10 minutes at room temperature. In a microplate reader (BMG labtech, PHERAstar FS), chemiluminescence was measured with the microplate reader.
as §2

[4] = Pharmacokinetics assay in mice; assay type: in vivo; conditions: female, mouse, po, C57 mice, intragastric, 2 mg/kg, plasma; for Vd/F: read-out: Apparent distribution volume Vz/F; for AUC: read-out: Area under curve AUC; for CL/F: read-out: Clearance CLz/F; for half-life: read-out: Half-life T1/2 (converted); for Cmax: read-out: Plasma concentration Cmax; for MRT: read-out: Residence time MRT
Method: Mice were used as test animals. The drug concentration in plasma at different time points was determined by LC/MS/MS method after administration of the compounds 1-P2, 2-P2, 4-P2, 6-P2, 9-P2, 10-P2 and 11-P2. The pharmacokinetic behavior of the compounds of the present disclosure was studied and evaluated in mice.
Sixty-three C57 mice (female, equally divided into seven groups) were purchased from Shanghai Jiesijie Laboratory Animal Co., LTD. (Certificate No.: SCXK(Shanghai)2013-0006).
A certain amount of the test compound was weighed, dissolved in 5% of DMSO by volume and 5% of tween 80, followed by the additon of 90% of normal saline to prepare a 0.1 mg/mL colorless, clear and transparent solution.
After an overnight fast, C57 mice were intragastrically administered the test compound at an administration dose of 2 mg/kg and an administration volume of 0.2 ml/10 g.
The mice were intragastrically administered the test compounds. 0.1 ml of blood was taken before the administration and at 0.25, 0.5, 1.0, 2.0, 4.0, 6.0, 8.0, 11.0 and 24.0 hours after the administration. The samples were stored in heparinized tubes, and centrifuged for 10 minutes at 3500 rpm to separate the blood plasma. The plasma samples were stored at −20° C.
The content of the test compound in the plasma of mice after intragastrical administration of the test compound at different concentrations was determined: 25 μL of […] plasma at each time point after the administration was taken, followed by the addition of 50 μL of the internal standard camptothecin solution (100ng/mL) and 200 μL of acetonitrile. The resulting solution was vortex-mixed for 5 minutes, and centrifuged for 10 minutes (4000 rpm). 4 μL of the supernatant was taken from the plasma samples for LC/MS/MS analysis.

T2 sequence (P28482 2-360 limits assumed): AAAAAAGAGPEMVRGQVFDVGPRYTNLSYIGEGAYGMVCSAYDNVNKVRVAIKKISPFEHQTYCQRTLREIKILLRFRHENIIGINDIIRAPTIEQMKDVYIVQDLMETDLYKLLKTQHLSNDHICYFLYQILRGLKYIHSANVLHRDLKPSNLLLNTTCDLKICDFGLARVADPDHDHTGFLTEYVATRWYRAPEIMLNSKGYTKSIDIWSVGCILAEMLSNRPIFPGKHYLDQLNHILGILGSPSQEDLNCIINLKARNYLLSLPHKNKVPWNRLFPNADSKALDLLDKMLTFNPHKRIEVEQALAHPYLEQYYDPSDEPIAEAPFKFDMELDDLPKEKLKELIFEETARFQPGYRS
T1 sequence (P27361 whole entry): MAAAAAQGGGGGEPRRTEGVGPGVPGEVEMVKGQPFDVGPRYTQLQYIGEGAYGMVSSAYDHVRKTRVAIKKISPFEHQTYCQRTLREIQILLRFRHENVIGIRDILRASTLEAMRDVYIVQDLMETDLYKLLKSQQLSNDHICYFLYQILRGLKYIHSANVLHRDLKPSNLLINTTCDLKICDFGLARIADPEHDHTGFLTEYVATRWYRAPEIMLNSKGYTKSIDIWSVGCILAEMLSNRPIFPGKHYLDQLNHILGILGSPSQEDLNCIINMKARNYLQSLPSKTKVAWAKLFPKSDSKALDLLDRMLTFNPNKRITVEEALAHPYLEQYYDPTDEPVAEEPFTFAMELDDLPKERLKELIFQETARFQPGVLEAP

## COc1cc(F)cc([C@@H](CO)NC(=O)[C@@H](C)N2CCc3cc(-c4nc(NC5CCOCC5)ncc4Cl)cn3C2=O)c1 [Example 2-P2, (R)-2-(6-(5-Chloro-2-((tetrahydro-2H-pyran-4-yl)amino)pyrimidin-4-yl)-1-oxo-3,4-dihydropyrrolo[1,2-c]pyrimidin-2(1H)-yl)-N-((S)-1-(3-fluoro-5-methoxyphenyl)-2-hydroxyethyl)propanamide]
[1]
  IC50: 4.6 nM
[2]
  IC50: 1.7 nM
[3]
  IC50: 15 nM
[4]
  Vd/F: 5.94 L/kg
  AUC: 994 ng·h/mL
  CL/F: 33.5 mL/min/kg
  half-life: 2.05 h
  Cmax: 867 ng/mL
  MRT: 1.08 h

## COc1cc(F)cc([C@@H](CO)NC(=O)[C@@H](C)N2CCn3cc(-c4nc(NC5CCOCC5)ncc4Cl)cc3C2=O)c1 [Example 4-P2, (R)-2-(7-(5-Chloro-2-((tetrahydro-2H-pyran-4-yl)amino)pyrimidin-4-yl)-1-oxo-3,4-dihydropyrrolo[1,2-a]pyrazin-2(1H)-yl)-N-((S)-1-(3-fluoro-5-methoxyphenyl)-2-hydroxyethyl)propanamide]
[1]
  IC50: 3.8 nM
[2]
  IC50: 1 nM
[3]
  IC50: 10 nM
[4]
  Vd/F: 3.29 L/kg
  AUC: 936 ng·h/mL
  CL/F: 35.5 mL/min/kg
  half-life: 1.07 h
  Cmax: 905 ng/mL
  MRT: 1.07 h

## Cc1cccc([C@@H](CO)NC(=O)[C@@H](C)N2CCn3cc(-c4nc(NC5CCOCC5)ncc4Cl)cc3C2=O)c1 [Example 9-P2, (R)-2-(7-(5-Chloro-2-((tetrahydro-2H-pyran-4-yl)amino)pyrimidin-4-yl)-1-oxo-3,4-dihydropyrrolo[1,2-a]pyrazin-2(1H)-yl)-N-((S)-2-hydroxy-1-(m-tolyl)ethyl)propanamide]
[1]
  IC50: 9 nM
[2]
  IC50: 1.9 nM
[3]
  IC50: 17.7 nM
[4]
  Vd/F: 3.14 L/kg
  AUC: 1330 ng·h/mL
  CL/F: 25.1 mL/min/kg
  half-life: 1.44 h
  Cmax: 1410 ng/mL
  MRT: 0.838 h

## Cc1cccc([C@@H](CO)NC(=O)[C@@H](C)N2CCc3cc(-c4nc(NC5CCOCC5)ncc4Cl)cn3C2=O)c1 [Example 11-P2, (R)-2-(6-(5-Chloro-2-((tetrahydro-2H-pyran-4-yl)amino)pyrimidin-4-yl)-1-oxo-3,4-dihydropyrrolo[1,2-c]pyrimidin-2(1H)-yl)-N-((S)-2-hydroxy-1-(m-tolyl)ethyl)propanamide]
[1]
  IC50: 17 nM
[2]
  IC50: 2.1 nM
[3]
  IC50: 26 nM
[4]
  Vd/F: 3.51 L/kg
  AUC: 784 ng·h/mL
  CL/F: 42.4 mL/min/kg
  half-life: 0.957 h
  Cmax: 813 ng/mL
  MRT: 1.15 h
